What is called IC50 is the midpoint of a concentration-inhibition curve.

For this assay, the target named is T1, hVR1 (Homo sapiens, UniProt Q8NER1).
T1 construct: expressed in transfected cells; host or cells: CHO cells, stably transfected
T1 sequence (Q8NER1 whole entry): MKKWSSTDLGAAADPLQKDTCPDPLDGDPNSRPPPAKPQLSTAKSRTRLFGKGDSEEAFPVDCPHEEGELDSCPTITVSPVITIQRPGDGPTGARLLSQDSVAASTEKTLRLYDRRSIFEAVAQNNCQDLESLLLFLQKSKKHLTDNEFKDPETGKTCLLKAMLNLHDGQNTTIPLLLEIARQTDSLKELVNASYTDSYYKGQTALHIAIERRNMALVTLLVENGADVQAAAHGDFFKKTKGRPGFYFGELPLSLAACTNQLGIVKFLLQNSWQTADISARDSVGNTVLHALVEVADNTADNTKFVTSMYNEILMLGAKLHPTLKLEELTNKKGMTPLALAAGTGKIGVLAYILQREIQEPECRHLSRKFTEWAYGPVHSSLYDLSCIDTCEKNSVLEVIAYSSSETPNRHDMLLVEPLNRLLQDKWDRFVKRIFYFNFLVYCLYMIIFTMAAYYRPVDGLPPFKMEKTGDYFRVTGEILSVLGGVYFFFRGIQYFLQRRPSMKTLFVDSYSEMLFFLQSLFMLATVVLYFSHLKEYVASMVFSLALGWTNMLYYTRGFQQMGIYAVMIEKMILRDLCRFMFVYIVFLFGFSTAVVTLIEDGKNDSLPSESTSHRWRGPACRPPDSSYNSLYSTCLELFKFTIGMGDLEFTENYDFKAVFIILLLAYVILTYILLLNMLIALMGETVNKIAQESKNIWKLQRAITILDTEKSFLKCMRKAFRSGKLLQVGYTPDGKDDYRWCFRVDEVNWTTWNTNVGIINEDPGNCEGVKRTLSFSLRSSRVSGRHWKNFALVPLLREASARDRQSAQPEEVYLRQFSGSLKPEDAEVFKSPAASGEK
In words: hVR1 FLIPR (Fluorometric Image Plate Reader) screening assay, IC50 determination. The format is cell-based. To be noted: transfected CHO cells stably expressing hVR1; Fluo-4 calcium signal; agonist 50 nM capsaicin or MES buffer pH 5.2. As for the experimental part:
1. hVR1 FLIPR (Fluorometric Image Plate Reader) Screening Assay
Transfected CHO cells, stably expressing hVR1 (15,000 cells/well) are seeded in 50 μL media in a black clear bottom 384 plate (Greiner) and grown in a humidified incubator (37° C., 2% CO2), 24-30 hours prior to experiment.
Subsequently, the media is removed from the cell plate by inversion and 2 μM Fluo-4 is added using a multidrop (Labsystems). Following the 40 min dye incubation in the dark at 37° C. and 2% CO2, the extracellular dye present is washed away using an EMBLA (Scatron), leaving the cells in 40 μL of assay buffer (1×HBSS, 10 mM D-Glucose, 1 mM CaCl2, 10 mM HEPES, 10×7.5% NaHCO3 and 2.5 mM Probenecid).
FLIPR Assay—IC50 Determination Protocol
For IC50 determinations the fluorescence is read using FLIPR filter 1 (em […]). A cellular baseline recording is taken for 30 seconds, followed by a 20 μL addition of 10, titrated half-log concentrations of the test compound, yielding cellular concentration ranging from 3 μM to 0.1 nM. Data is collected every 2 seconds for a further 5 min prior to the addition of a VR1 agonist solution: either 50 nM solution of capsaicin or MES (2-[N-morpholino]ethanesulfonic acid) buffer (pH 5.2), by the FLIPR pipettor. The FLIPR continues to collect data for a further 4 min. Compounds having antagonistic properties against the hVR1 will inhibit the increase in intracellular calcium in response to the capsaicin addition. This consequently leading to a reduction in fluorescence signal and providing a reduced fluorescence reading, compared with no compound, buffer controls. Data is exported by the FLIPR program as a sum of fluorescence calculated under the curve upon the addition of capsaicin. Maximum inhibition, Hill slope and IC50 data for each compound are generated.
As to `O=C1NC(=O)C2(N1)C(=O)N(C/C=C/c1ccc(Cl)c(Cl)c1)c1ccc(OC(F)(F)F)cc12` (stereo not drawn) [Compound 3], the IC50 was determined as 3 µM.
The figure for `CN1C(=O)N(C)C2(C1=O)C(=O)N(C/C=C/c1ccc(Cl)c(Cl)c1)c1ccccc12` (stereo not drawn) [Compound 5, 1′-[(2E)-3-(3,4-dichlorophenyl)prop-2-en-1-yl]-1,3-dimethyl-2H,5H-spiro[imidazolidine-4,3′-indole]-2,2′,5(1′H)-trione] is 2.11 µM; for `COCCN1C(=O)N(CCOC)C2(C1=O)C(=O)N(C/C=C/c1ccc(Cl)c(Cl)c1)c1ccccc12` (stereo not drawn) [Compound 7, 1′-[(2E)-3-(3,4-dichlorophenyl)prop-2-en-1-yl]-1,3-bis(2-methoxyethyl)-2H,5H-spiro[imidazolidine-4,3′-indole]-2,2′,5(1′H)-trione] it is 3.01 µM.

Values taken from patent publication US20090076049A1, “Novel Spiro [Imidazolidine-4, 3' -Indole] 2, 2', 5' (1H) Triones for Treatment of Conditions Associated with Vanilloid Receptor 1” (AstraZeneca AB, priority 2006, published 2009).
